From patent publication US20250382344A1, “Soluble GLP1/GIP/NPY2 Receptor Triple Agonists” (Boehringer Ingelheim International GmH, priority 2024, published 2025)
Where two headings read alike, the source gives them in different places.

Tests used:
[1] = Solubility in 0.1 M phosphate buffer at pH 7; type: physicochemical; details: 0.1 M phosphate buffer at pH 7, 10 mg/mL final peptide concentration, shaking 2 hours at room temperature, peptides as TFA-salts; measured sample pH 6.5-7.0
hGIPR = target: T1, hGIPR (Homo sapiens, UniProt P48546); assay: hGIPR CreLuc assay in 0.5% and 100% plasma (CHO CRE-luciferase reporter cells); type: cell-based; details: 0.5% human plasma
T1 construct: expressed in transfected cells; host or cells: CHO CRE-luciferase reporter cells
T1 sequence (P48546 22-466): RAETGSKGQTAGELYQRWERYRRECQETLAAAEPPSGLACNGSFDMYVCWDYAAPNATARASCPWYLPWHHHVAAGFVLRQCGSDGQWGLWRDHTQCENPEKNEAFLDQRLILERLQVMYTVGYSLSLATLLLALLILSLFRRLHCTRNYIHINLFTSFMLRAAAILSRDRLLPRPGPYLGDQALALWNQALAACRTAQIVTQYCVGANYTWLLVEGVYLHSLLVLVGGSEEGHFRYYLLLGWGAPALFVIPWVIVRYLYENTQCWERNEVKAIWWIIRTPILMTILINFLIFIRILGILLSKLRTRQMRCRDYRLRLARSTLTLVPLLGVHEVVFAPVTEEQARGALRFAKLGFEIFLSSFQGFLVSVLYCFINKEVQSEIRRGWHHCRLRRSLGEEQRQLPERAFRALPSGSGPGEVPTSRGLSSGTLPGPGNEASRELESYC
Excerpt: CHO and HEK-293 recombinant cell lines express a luciferase reporter gene under control of the CAMP responsive element (CRE). As a second recombinant protein the GLP-1 and NPY2 receptors were expressed in the reporter gene HEK cells, and the GIP receptor was expressed in the reporter gene CHO cells, respectively. Stimulation of these recombinant cells with an agonist leads to an increase of intracellular CAMP levels. In the presence of CAMP, the transcription factor CRE binding protein (CREB) binds to the CRE and to the CREB binding protein (CBP), which leads to transcription of the luciferase reporter gene. Peptides upon serial-dilution in 100% DMSO were transferred into 384-well assay plates with 5 μl pre-dispensed assay buffer (1×HBSS, 20 mM HEPES, pH7.4 supplemented with 0.5% human plasma) using acoustic dispensing on a Labcyte ECHO. Cryo-preserved transgenic reporter gene cells were thawed in assay buffer. 20 μl (10.000 cells/well) were added to the plate with the peptides and incubated for 4 hours at 37° C. in a humidified incubator. Following incubation, assay plates are equilibrated to room temperature, followed by addition of 25 μl of Bright-Glo™ Luciferase reagent, incubation at room temperature for 10 minutes and analysis of luminescence (Envision Reader). […] EC50 values were calculated by non-linear regression using sigmoid concentration-response with variable slope.
The same assays were run in the presence of 100% plasma with no additional buffer constituents.

SMILES | solubility at 2 h [1] [µg/mL] | EC50 (hGIPR; read-out: hGIPR 0.5% hP) [nM] | EC50 (hGIPR; hGIPR 0.5% hP (nM)) [nM]
CC[C@H](C)[C@H](NC(=O)[C@H](CC(C)C)NC(=O)[C@H](Cc1c[nH]cn1)NC(=O)[C@H](CCCNC(=N)N)NC(=O)[C@@H](NC(=O)[C@H](Cc1ccccc1)NC(=O)[C@H](C)NC(=O)C(C)(C)NC(=O)[C@H](CCC(N)=O)NC(=O)[C@H](C)NC(=O)[C@H](CCC(N)=O)NC(=O)[C@H](CCCCN)NC(=O)[C@H](CCC(=O)O)NC(=O)[C@H](CC(C)C)NC(=O)C(C)(C)NC(=O)[C@@H](NC(=O)[C@H](CO)NC(=O)[C@H](CC(C)C)NC(=O)[C@H](CC(=O)O)NC(=O)[C@H](CO)NC(=O)[C@@H](NC(=O)[C@H](Cc1ccccc1)NC(=O)[C@@H](NC(=O)CNC(=O)[C@H](CCC(=O)O)NC(=O)C(C)(C)NC(=O)[C@@H](N)Cc1ccc(O)cc1)[C@@H](C)O)[C@@H](C)O)[C@@H](C)CC)C(C)C)C(=O)N[C@@H](CC(N)=O)C(=O)N[C@@H](CCCCNC(=O)CC[C@H](NC(=O)CC[C@H](NC(=O)CC[C@H](NC(=O)CC[C@H](NC(=O)CC[C@H](NC(=O)CC[C@H](NC(=O)CCCCCCCCCCCCCCCCCCC(=O)O)C(=O)O)C(=O)O)C(=O)O)C(=O)O)C(=O)O)C(=O)O)C(=O)NC(C)(C)C(=O)N[C@H](C(=O)N[C@@H](CCCNC(=N)N)C(=O)N[C@@H](CCC(N)=O)C(=O)N[C@@H](CCCNC(=N)N)C(=O)N[C@@H](Cc1ccc(O)cc1)C(N)=O)[C@@H](C)O [Compound 51, Y-Aib-E-G-T-F-T-S-D-L-S-I-Aib-L-E-K-Q-A-Q-Aib-A-F-V-R-H-L-I-N-K(1,3)-Aib-T-R-Q-R-Y-NH2.C20DA-gGlu-gGlu-gGlu-gGlu-gGlu-gGlu(1,2)] | 9300 |  | 0.5
CC[C@H](C)[C@H](NC(=O)[C@H](CC(C)C)NC(=O)[C@H](Cc1c[nH]cn1)NC(=O)[C@H](CCCNC(=N)N)NC(=O)[C@@H](NC(=O)[C@H](Cc1ccccc1)NC(=O)[C@H](C)NC(=O)C(C)(C)NC(=O)[C@H](CCC(N)=O)NC(=O)[C@H](C)NC(=O)[C@H](CCC(N)=O)NC(=O)[C@H](CCCCN)NC(=O)[C@H](CCC(=O)O)NC(=O)[C@H](CC(C)C)NC(=O)C(C)(C)NC(=O)[C@@H](NC(=O)[C@H](CO)NC(=O)[C@H](Cc1ccc(O)cc1)NC(=O)[C@H](CC(=O)O)NC(=O)[C@H](CO)NC(=O)[C@@H](NC(=O)[C@H](Cc1ccccc1)NC(=O)[C@@H](NC(=O)CNC(=O)[C@H](CCC(=O)O)NC(=O)C(C)(C)NC(=O)[C@@H](N)Cc1ccc(O)cc1)[C@@H](C)O)[C@@H](C)O)[C@@H](C)CC)C(C)C)C(=O)N[C@@H](CC(N)=O)C(=O)N[C@@H](CCCCNC(=O)CC[C@H](NC(=O)CC[C@H](NC(=O)COCCOCCNC(=O)CC[C@H](NC(=O)CC[C@H](NC(=O)CC[C@H](NC(=O)CC[C@H](NC(=O)CCCCCCCCCCCCCCCCCCC(=O)O)C(=O)O)C(=O)O)C(=O)O)C(=O)O)C(=O)O)C(=O)O)C(=O)NC(C)(C)C(=O)N[C@H](C(=O)N[C@@H](CCCNC(=N)N)C(=O)N[C@@H](CCC(N)=O)C(=O)N[C@@H](CCCNC(=N)N)C(=O)N[C@@H](Cc1ccc(O)cc1)C(N)=O)[C@@H](C)O [Compound 136, Y-Aib-E-G-T-F-T-S-D-Y-S-I-Aib-L-E-K-Q-A-Q-Aib-A-F-V-R-H-L-I-N-K(1,3)-Aib-T-R-Q-R-Y-NH2.C20DA-gGlu-gGlu-gGlu-gGlu-OEG-gGlu-gGlu(1,2)] | 9600 | 0.5 | 
CC[C@H](C)[C@H](NC(=O)[C@H](CC(C)C)NC(=O)[C@H](Cc1c[nH]cn1)NC(=O)[C@H](CCCNC(=N)N)NC(=O)[C@@H](NC(=O)[C@H](Cc1ccccc1)NC(=O)[C@H](C)NC(=O)C(C)(C)NC(=O)[C@H](CCC(N)=O)NC(=O)[C@H](C)NC(=O)[C@H](CCC(N)=O)NC(=O)[C@H](CCCCN)NC(=O)[C@H](CCC(=O)O)NC(=O)[C@H](CC(C)C)NC(=O)C(C)(C)NC(=O)[C@@H](NC(=O)[C@H](CO)NC(=O)[C@H](Cc1ccc(O)cc1)NC(=O)[C@H](CC(=O)O)NC(=O)[C@H](CO)NC(=O)[C@@H](NC(=O)[C@H](Cc1ccccc1)NC(=O)[C@@H](NC(=O)CNC(=O)[C@H](CCC(=O)O)NC(=O)C(C)(C)NC(=O)[C@@H](N)Cc1ccc(O)cc1)[C@@H](C)O)[C@@H](C)O)[C@@H](C)CC)C(C)C)C(=O)N[C@@H](CC(N)=O)C(=O)N[C@@H](CCCCNC(=O)[C@@H](N)CCCCNC(=O)CC[C@H](NC(=O)CC[C@H](NC(=O)CC[C@H](NC(=O)CC[C@H](NC(=O)CC[C@H](NC(=O)CCCCCCCCCCCCCCCCCCC(=O)O)C(=O)O)C(=O)O)C(=O)O)C(=O)O)C(=O)O)C(=O)NC(C)(C)C(=O)N[C@H](C(=O)N[C@@H](CCCNC(=N)N)C(=O)N[C@@H](CCC(N)=O)C(=O)N[C@@H](CCCNC(=N)N)C(=O)N[C@@H](Cc1ccc(O)cc1)C(N)=O)[C@@H](C)O [Compound 59, Y-Aib-E-G-T-F-T-S-D-Y-S-I-Aib-L-E-K-Q-A-Q-Aib-A-F-V-R-H-L-I-N-K(1,3)-Aib-T-R-Q-R-Y-NH2.C20DA-gGlu-gGlu-gGlu-gGlu-gGlu-eLys(1,2)] | 2100 | 0.4 | 

Further lines, with some results ahead:

solubility at 2 h [1] [µg/mL] | EC50 (hGIPR; read-out: hGIPR 0.5% hP) [nM] | SMILES | EC50 (hGIPR; hGIPR 0.5% hP (nM)) [nM]
4300 | 0.3 | CC[C@H](C)[C@H](NC(=O)[C@H](CC(C)C)NC(=O)[C@H](Cc1c[nH]cn1)NC(=O)[C@H](CCCNC(=N)N)NC(=O)[C@@H](NC(=O)[C@H](Cc1ccccc1)NC(=O)[C@H](C)NC(=O)C(C)(C)NC(=O)[C@H](CCC(N)=O)NC(=O)[C@H](C)NC(=O)[C@H](CCC(N)=O)NC(=O)[C@H](CCC(=O)O)NC(=O)[C@H](CCC(=O)O)NC(=O)[C@H](CC(C)C)NC(=O)C(C)(C)NC(=O)[C@@H](NC(=O)[C@H](CO)NC(=O)[C@H](Cc1ccc(O)cc1)NC(=O)[C@H](CC(=O)O)NC(=O)[C@H](CO)NC(=O)[C@@H](NC(=O)[C@H](Cc1ccccc1)NC(=O)[C@@H](NC(=O)CNC(=O)[C@H](CCC(=O)O)NC(=O)C(C)(C)NC(=O)[C@@H](N)Cc1ccc(O)cc1)[C@@H](C)O)[C@@H](C)O)[C@@H](C)CC)C(C)C)C(=O)N[C@@H](CC(N)=O)C(=O)N[C@@H](CCCCNC(=O)CC[C@H](NC(=O)CC[C@H](NC(=O)CC[C@H](NC(=O)CC[C@H](NC(=O)CC[C@H](NC(=O)CCCCCCCCCCCCCCCCC(=O)O)C(=O)O)C(=O)O)C(=O)O)C(=O)O)C(=O)O)C(=O)NC(C)(C)C(=O)N[C@H](C(=O)N[C@@H](CCCNC(=N)N)C(=O)N[C@@H](CCC(N)=O)C(=O)N[C@@H](CCCNC(=N)N)C(=O)N[C@@H](Cc1ccc(O)cc1)C(N)=O)[C@@H](C)O [Compound 75, Y-Aib-E-G-T-F-T-S-D-Y-S-I-Aib-L-E-E-Q-A-Q-Aib-A-F-V-R-H-L-I-N-K(1,3)-Aib-T-R-Q-R-Y-NH2.C18DA-gGlu-gGlu-gGlu-gGlu-gGlu(1,2)] | 
4300 | 0.3 | CC[C@H](C)[C@H](NC(=O)[C@H](CC(C)C)NC(=O)[C@H](Cc1c[nH]cn1)NC(=O)[C@H](CCCNC(=N)N)NC(=O)[C@@H](NC(=O)[C@H](Cc1ccccc1)NC(=O)[C@H](C)NC(=O)C(C)(C)NC(=O)[C@H](CCC(N)=O)NC(=O)[C@H](C)NC(=O)[C@H](CCC(N)=O)NC(=O)[C@H](C)NC(=O)[C@H](CCC(=O)O)NC(=O)[C@H](CC(C)C)NC(=O)C(C)(C)NC(=O)[C@@H](NC(=O)[C@H](CO)NC(=O)[C@H](Cc1ccc(O)cc1)NC(=O)[C@H](CC(=O)O)NC(=O)[C@H](CO)NC(=O)[C@@H](NC(=O)[C@H](Cc1ccccc1)NC(=O)[C@@H](NC(=O)CNC(=O)[C@H](CCC(=O)O)NC(=O)C(C)(C)NC(=O)[C@@H](N)Cc1ccc(O)cc1)[C@@H](C)O)[C@@H](C)O)[C@@H](C)CC)C(C)C)C(=O)N[C@@H](CC(N)=O)C(=O)N[C@@H](CCCCNC(=O)[C@@H](N)CCCCNC(=O)CC[C@H](NC(=O)CC[C@H](NC(=O)CC[C@H](NC(=O)CC[C@H](NC(=O)CC[C@H](NC(=O)CC[C@H](NC(=O)CCCCCCCCCCCCCCCCC(=O)O)C(=O)O)C(=O)O)C(=O)O)C(=O)O)C(=O)O)C(=O)O)C(=O)NC(C)(C)C(=O)N[C@H](C(=O)N[C@@H](CCCNC(=N)N)C(=O)N[C@@H](CCC(N)=O)C(=O)N[C@@H](CCCNC(=N)N)C(=O)N[C@@H](Cc1ccc(O)cc1)C(N)=O)[C@@H](C)O [Compound 123, Y-Aib-E-G-T-F-T-S-D-Y-S-I-Aib-L-E-A-Q-A-Q-Aib-A-F-V-R-H-L-I-N-K(1,3)-Aib-T-R-Q-R-Y-NH2.C18DA-gGlu-gGlu-gGlu-gGlu-gGlu-gGlu-eLys(1,2)] | 
